Measured values as given in patent US20070249655A1, “4-Substituted-1,5-Dihydro-Pyrido[3,2-B]Indol-2-Ones” (priority 2004, published 2007).
Like-named read-outs stand apart in the source and are kept apart here.

How the values were obtained:
[1] = tested on: HIV strain I (K101E, K103N); test: Antiviral cellular assay, mutant strain I; format: cell-based
Method: (§1) HIV- or mock-infected MT4 cells were incubated for five days in the presence of various concentrations of the inhibitor. At the end of the incubation period, the replicating virus in the control cultures has killed all HIV-infected cells in the absence of any inhibitor. Cell viability was determined by measuring the concentration of MTT, a yellow, water soluble tetrazolium dye that is converted to a purple, water insoluble formazan in the mitochondrial of living cells only. Upon solubilization of the resulting formazan crystals with isopropanol, the absorbance of the solution was monitored at 540 nm. The values correlate directly to the number of living cells remaining in the culture at the completion of the five day incubation. The inhibitory activity of the compound was monitored on the virus-infected cells and was expressed as EC50 and EC90. These values represent the amount of the compound required to protect 50% and 90%, respectively, of the cells from the cytopathogenic effect of the virus. The toxicity of the compound was measured on the mock-infected cells and was expressed as CC50, which represents the concentration of compound required to inhibit the growth of the cells by 50%. The selectivity index (SI) (ratio CC50/EC50) is an indication of the selectivity of the anti-HIV activity of the inhibitor. Wherever results are reported as e.g. pEC50 or pCC50 values, the result is expressed as the negative logarithm of the result expressed as EC50 or CC50 respectively.
(§2) Because of the increasing emergence of drug resistant HIV strains, the present compounds were also tested for their potency against clinically isolated HIV strains harbouring several mutations (Tables 1 and 7). These mutations are associated with resistance to reverse transcriptase inhibitors and result in viruses that show various degrees of phenotypic cross-resistance to the currently commercially available drugs such as for instance AZT, didanosine, nevirapine, lamivudine and zalcibatine.

[2] = tested on: HIV strain C (L100I; K103N); test: Antiviral cellular assay, mutant strain C; format: cell-based
Method: as §1, §2

HIV strain E (F227C) = test: Antiviral cellular assay, mutant strain E; format: cell-based
Method: as §1, §2

[3] = tested on: wild type laboratory HIV strain (HIV-1 strain LAI); test: Antiviral cellular assay (MT4 cells, MTT), wild type; format: cell-based
Method: The compounds of the present invention were examined for anti-viral activity in a cellular assay. […] The cellular assay was performed according to the following procedure.
as §1

in vitro = format: cell-based; conditions: human
Method: as §1, with “The toxicity of the compound was measured on the mock-infected cells and was expressed as CC50, which represents the concentration of compound required to inhibit the growth of the cells by 50%. The selectivity index (SI) (ratio CC50/EC50) is an indication of the selectivity of the anti-HIV activity of the inhibitor.” left out
(§3) Row WT: pEC50 against wild type HlV-LAI strain. The toxicity (Tox) is expressed as the pCC50 value as determined with mock transfected cells. ND means not determined.

HIV strain F (Y188L) = test: Antiviral cellular assay, mutant strain F; format: cell-based
Method: as §1, §2

Mycobacterium b. = test: Specificity versus non-viral pathogens: Mycobacterium b.; format: cell-based
HIV strain B (K103N) = test: Antiviral cellular assay, mutant strain B; format: cell-based
Method: as §1, §2

[4] = tested on: HIV strain J (I31L, L100I, K103N, E138G, Y181C, L214F); test: Antiviral cellular assay, mutant strain J; format: cell-based
Method: as §1, §2

HIV-2 = test: Antiviral cellular assay, HIV-2; format: cell-based; conditions: Human immunodeficiency virus 2; read-out: pEC50 towards HIV-2 (converted)
Method: as §1, with “The toxicity of the compound was measured on the mock-infected cells and was expressed as CC50, which represents the concentration of compound required to inhibit the growth of the cells by 50%. The selectivity index (SI) (ratio CC50/EC50) is an indication of the selectivity of the anti-HIV activity of the inhibitor.” left out
as §3

[5] = target: T1, HIV reverse transcriptase (Human immunodeficiency virus type 1 group M subtype B, UniProt P04585); test: In vitro inhibition of HIV reverse transcriptase (kit TRK 1022); format: biochemical; conditions: enzyme assay, no conversion to active metabolite needed
T1 construct: 5 μl HIV RT enzyme solution at a final enzyme activity of 15 mU per 50 μl reaction; purchased Amersham Life Sciences TRK 1022
Method: In vitro Inhibition of HIV Reverse Transcriptase The assay was run using kit TRK 1022 (Amersham Life Sciences) according to the manufacturer's instructions with slight modifications. Compounds were diluted in steps of ¼ in 100% DMSO and subsequently transferred to Medium A (1/50 dilution; medium A: RPMI 1640+10% FetalClone II+Gentamycin 20 mg/L). 25 μl of compound (in 2% DMSO in Medium A) or 25 μl of 2% DMSO in medium A was added to wells. To each well was added 25.5 μl master mix (master mix: 5 μl primer/template beads, 10 μl assay buffer, 0.5 μl tracer (3H-TTP), 5 μl HIV RT enzyme solution at a final enzyme activity of 15 mU per 50 μl reaction, 5 μl medium A). The plates were sealed, marked as radioactive and incubated during 4 hours at 37° C. Subsequently, 100 μl stop solution was added to each well (except R1). The radioactivity was counted in a TopCount.

[6] = tested on: HIV strain H (K103N, Y181C); test: Antiviral cellular assay, mutant strain H; format: cell-based
Method: as §1, §2

Plasmodium f. = test: Specificity versus non-viral pathogens: Plasmodium f.; format: cell-based
Trypanosoma b. = test: Specificity versus non-viral pathogens: Trypanosoma b.; format: cell-based
HIV strain A (Y181C) = test: Antiviral cellular assay, mutant strain A; format: cell-based
Method: as §1, §2

[7] = tested on: HIV strain K (multi-mutant incl. M41L, D67N, K103N, Y181C, L210W, T215Y); test: Antiviral cellular assay, mutant strain K; format: cell-based
Method: as §1, §2

[8] = tested on: SIV (simian immunodeficiency virus); test: Antiviral cellular assay, SIV; format: cell-based; conditions: read-out: pEC50 towards SIV (converted)
[9] = tested on: HIV strain D (L100I;K103N); test: Antiviral cellular assay, mutant strain D; format: cell-based
Method: as §1, §2

Trypanosoma c. = test: Specificity versus non-viral pathogens: Trypanosoma c.; format: cell-based
[10] = tested on: HIV strain G (V106A, F227L); test: Antiviral cellular assay, mutant strain G; format: cell-based
Method: as §1, §2

[11] = EC50 mutant / EC50 wild type, rounded to nearest integer

Cn1c2ccccc2c2c1cc(C#N)c(=O)n2-c1ccc([N+](=O)[O-])cc1 [Compound 2, 5-methyl-1-(4-nitro-phenyl)-2-oxo-2,5-dihydro-1H-pyrido[3,2-b]indole-3-carbonitrile]
fold resistance, mutant I [1, 11]: (3) | EC50 ([1]; Human immunodeficiency virus 1, read-out: pEC50 towards mutant I (converted)): 63.1 nM | fold resistance, mutant C [2, 11]: (3) | EC50 ([2]; Human immunodeficiency virus 1, read-out: pEC50 towards mutant C (converted)): 79.4 nM | fold resistance, mutant E (HIV strain E (F227C); [11]): (3) | EC50 (HIV strain E (F227C); Human immunodeficiency virus 1, read-out: pEC50 towards mutant E (converted)): 63.1 nM | EC50 ([3]; Human immunodeficiency virus 1, MT4, read-out: EC50 value for wild-type HIV): < 100 nM | EC50 ([3]; Human immunodeficiency virus 1, WT, MT4 cells, read-out: pEC50 against wild type HIV-LAI strain (converted)): 25.1 nM | CC50 at 5 days (in vitro): > 32400 nM | fold resistance, mutant F (HIV strain F (Y188L); [11]): (2) | EC50 (HIV strain F (Y188L); Human immunodeficiency virus 1, read-out: pEC50 towards mutant F (converted)): 39.8 nM | EC50 (Mycobacterium b.): > 32000 nM | fold resistance, mutant B (HIV strain B (K103N); [11]): (1) | EC50 (HIV strain B (K103N); Human immunodeficiency virus 1, read-out: pEC50 towards mutant B (converted)): 31.6 nM | fold resistance, mutant J [4, 11]: (5) | EC50 ([4]; Human immunodeficiency virus 1, read-out: pEC50 towards mutant J (converted)): 126 nM | EC50 (HIV-2): 251 nM | inhibition of HIV reverse transcriptase in vitro [5]: inhibits HIV reverse transcriptase in vitro | fold resistance, mutant H [6, 11]: (5) | EC50 ([6]; Human immunodeficiency virus 1, read-out: pEC50 towards mutant H (converted)): 126 nM | EC50 (Plasmodium f.): > 32000 nM | EC50 (Trypanosoma b.): > 32000 nM | fold resistance, mutant A (HIV strain A (Y181C); [11]): (4) | EC50 (HIV strain A (Y181C); Human immunodeficiency virus 1, read-out: pEC50 towards mutant A (converted)): 100 nM | fold resistance, mutant K [7, 11]: (4) | EC50 ([7]; Human immunodeficiency virus 1, read-out: pEC50 towards mutant K (converted)): 100 nM | EC50 [8]: 316 nM | fold resistance, mutant D [9, 11]: (2) | EC50 ([9]; Human immunodeficiency virus 1, read-out: pEC50 towards mutant D (converted)): 50.1 nM | EC50 (Trypanosoma c.): > 32000 nM | fold resistance, mutant G [10, 11]: (3) | EC50 ([10]; Human immunodeficiency virus 1, read-out: pEC50 towards mutant G (converted)): 63.1 nM
